Entries after “also recorded” stand apart in the source; their conditions may differ.
Experiments:
[1] = system: coculture of keratinocytes and melanocytes; assay: Cytotoxicity on coculture, estimated by leucine incorporation; assay type: cell-based
Method: (§1) The modulatory effect of each compound on melanogenesis was measured according to the method described in FR-A-2734825 and also in the article by R. Schmidt, P. Krien and M. Regnier, Anal. Bichem., 235(2), 113-18,1996. This test is carried out on a coculture of keratinocytes and melanocytes.
(§2) For the compounds tested, the following were determined: • the cytotoxicity, by estimating leucine incorporation, • the inhibitory activity on melanin synthesis, by estimating the ratio of thiouracil incorporation to leucine incorporation, relative to 100% of the control (the control corresponds to the test carried out without test compound). The IC50 values (concentration for which 50% of the melanin synthesis is inhibited) were determined.
(§3) The test was also carried out with arbutin, niacinamide and kojic acid, which are known depigmenting compounds.

[2] = system: coculture of keratinocytes and melanocytes; assay: Inhibitory activity on melanin synthesis (constitutive melanogenesis), ratio of thiouracil incorporation to leucine incorporation; assay type: cell-based; conditions: for IC50: read-out: IC50 (concentration for which 50% of the melanin synthesis is inhibited); for efficacy in inhibiting melanogenesis compared with known depigmenting compounds: conclusion in words from the coculture test
Method: as §1, §2, §3

[3] = ratio of thiouracil to leucine incorporation, relative to 100% of the control, coculture of keratinocytes and melanocytes

| IC50 [2, 3] [µM] | IC50 (concentration for which 50% of the melanin synthesis is inhibited) [2, 3] | Compound | Cytotoxicity on coculture [1] | efficacy in inhibiting melanogenesis compared with known depigmenting compounds [2] |
| --- | --- | --- | --- | --- |
| > 500 |  | OC[C@H]1O[C@@H](Oc2ccc(O)cc2)[C@H](O)[C@@H](O)[C@@H]1O [Arbutin, reference compound] | Non-cytotoxic |  |
| 4.9 |  | CCNC(=O)c1ccc[nH]c1=S [Compound 2, N-ethyl-2-thioxo-1,2-dihydropyridine-3-carboxamide] | Non-cytotoxic | more effective than arbutin, kojic acid and niacinamide; also recorded: the most effective compound |
| 32 |  | CCCCCNC(=O)c1ccc[nH]c1=S [Compound 7, N-pentyl-2-thioxo-1,2-dihydropyridine-3-carboxamide] | Non-cytotoxic | more effective than arbutin, kojic acid and niacinamide |
| 37 |  | O=C(NC1CCCCC1)c1ccc[nH]c1=S [Compound 12, N-cyclohexyl-2-thioxo-1,2-dihydropyridine-3-carboxamide] | Non-cytotoxic | more effective than arbutin, kojic acid and niacinamide |
| 25 |  | COc1ccc(CCNC(=O)c2ccc[nH]c2=S)cc1 [Compound 16, N-[2-(4-methoxyphenyl)ethyl]-2-thioxo-1,2-dihydropyridine-3-carboxamide] | 100 µM | more effective than arbutin, kojic acid and niacinamide |
| 410 |  | O=C(NCCO)c1ccc[nH]c1=S [Compound 19, N-(2-hydroxyethyl)-2-thioxo-1,2-dihydropyridine-3-carboxamide] | Non-cytotoxic | more effective than arbutin, kojic acid and niacinamide |
| 128 |  | O=C(NCC(O)CO)c1ccc[nH]c1=S (stereo not drawn) [Compound 21, N-(2,3-dihydroxypropyl)-2-thioxo-1,2-dihydropyridine-3-carboxamide] | Non-cytotoxic | more effective than arbutin, kojic acid and niacinamide |
| 29 |  | CCN(CC)C(=O)c1ccc[nH]c1=S [Compound 27, N,N-diethyl 2-mercaptonicotinamide] | Non-cytotoxic | more effective than arbutin, kojic acid and niacinamide |
| > 500 |  | O=c1cc(CO)occ1O [Kojic acid, reference compound] | 100 µM |  |
|  | Not attained | NC(=O)c1cccnc1 [Niacinamide, reference compound] | Non-cytotoxic |  |

Source: US11052028B2, “Process for depigmenting keratin materials using thiopyridinone compounds” (L'OREAL, priority 2010, dated 2021)
